Measurements from patent US7935723B2, “Use of organic compounds” (Novartis Pharma AG, priority 2004, dated 2011).

Key:
[1] = tested on: patients with Type 2 diabetes; assay: Clinical study (12-week core + 40-week extension): HbA1c in patients with Type 2 diabetes on metformin; format: in vivo, human; conditions: over one year
Protocol: This is a 40-week extension to core study, a 12-week randomized, parallel group, multi-center, placebo-controlled trial in patients with Type 2 diabetes who are already receiving metformin at a stable dosage of 1500-3000 mg daily. Patients treated with placebo, LAF237 50 mg OD (omnia die/once a day) in addition to metformin during the core study and maintained their treatment regimen in the extension. […] All patients are randomized to receive either placebo or LAF237 (50 mg) once dally for 52 weeks in addition to metformin at an unchanged dosage. During the 4-week run-in period, all patients receive LAF237 placebo tablets and are assessed for inclusion in the study. Patients meeting the inclusion criteria at the Baseline visit receives randomized treatment once daily for 52 weeks. The total study duration for each patient is 56 weeks. Throughout the study, patients are required to maintain their prior diet and exercise habits and to continue to take metformin at an unchanged dosage. […] This is measured by using Tosoh ion exchange High Performance Liquid Chromotography (HPLC). Primus Affinity HPLC is used as a back-up method if hemoglobin variants or hemoglobin degradation peaks are observed. The primary efficacy variable is change from baseline in HbA1c at the end of the study. […]

[2] = tested on: patients with Type 2 diabetes; assay: Clinical study: safety and tolerability, study completion; format: in vivo, human; conditions: 52 weeks, in combination with metformin
Source text: Safety assessments consist of monitoring and recording all non-serious and serious adverse events (SAE), the regular monitoring of hematology, blood chemistry and urinalysis values, regular measurement of vital signs, the performance of physical examinations and body weight measurements. The assessment of safety is based mainly on the frequency of adverse events and on the number of laboratory values that fall outside of pre-determined ranges. Other safety data (e.g. vital signs) will be considered as appropriate.

SMILES: N#C[C@@H]1CCCN1C(=O)CNC12CC3CC(CC(O)(C3)C1)C2 [LAF237, (S)-1-[(3-hydroxy-1-adamantyl)amino]acetyl-2-cyano-pyrrolidine]
- course of HbA1c levels (in words) [1]: decreased significantly
- tolerability [2]: well tolerated
